Measurements taken from patent US20170312290A1, “FUNCTIONALIZED MORPHOLINYL ANTHRACYCLINE DERIVATIVES” (Nerviano Medical Sciences S.R.L., priority 2014, published 2017).

Tests used:
Experiment in all cases: In vitro cell proliferation assay (CellTiter-Glo)
Format in all cases: cell-based
[1] = test system: HCT-116; details: Homo sapiens, HCT-116 cells, 72 h treatment, read-out: Cell Line IC50 HCT-116
Experimental: (§1) Human cancer cell lines were seeded in white 384 well-plates (1250 cells/well) in complete medium (RPM11640 or E-MEM plus 10% Fetal bovine serum) and treated with compounds dissolved in 0.1% DMSO, 24 h after seeding. The cells were incubated at 37° C. and 5% CO2 and after 72 h the plates were processed using CellTiter-Glo assay (Promega) following the manufacturer's instruction.
(§2) CellTiter-Glo is a homogenous method based on the quantification of the ATP present, an indicator of metabolically active cells. ATP is quantified using a system based on luciferase and D-luciferin resulting into light generation.
(§3) Briefly, 25 μL/well of reagent solution are added to each well and, after 5 minutes shaking, microplates are read by a luminometer. The luminescent signal is proportional to the number of live cells present in culture.
(§4) Dose-response curves were generated by sigmoid function interpolation of 8 concentration points and the antiproliferative activity of compounds was reported as the half-maximal inhibitory concentration (IC50).

[2] = test system: HCC1954; details: Homo sapiens, HCC1954 cells, 72 h treatment, read-out: Cell Line IC50 HCC1954
Experimental: as §1, §2, §3, §4

[3] = test system: MDA-MB_213; details: Homo sapiens, MDA-MB_213 cells, 72 h treatment, read-out: Cell Line IC50 MDA-MB_213
Experimental: as §1, §2, §3, §4

[4] = test system: MDA-MB-468; details: Homo sapiens, MDA-MB-468 cells, 72 h treatment, read-out: Cell Line IC50 MDA-MB-468
Experimental: as §1, §2, §3, §4

[5] = test system: MCF7; details: Homo sapiens, MCF7 cells, 72 h treatment, read-out: Cell Line IC50 MCF7
Experimental: as §1, §2, §3, §4

[6] = test system: HELA; details: Homo sapiens, HELA cells, 72 h treatment, read-out: Cell Line IC50 HELA
Experimental: as §1, §2, §3, §4

[7] = test system: A2780; details: Homo sapiens, A2780 cells, 72 h treatment, read-out: Cell Line IC50 A2780
Experimental: as §1, §2, §3, §4

Row | Structure (SMILES) | IC50 [1] [nM] | IC50 [2] [nM] | IC50 [3] [nM] | IC50 [4] [nM] | IC50 [5] [nM] | IC50 [6] [nM] | IC50 [7] [nM]
1 | CO[C@H]1OCCN2[C@@H]1O[C@@H]1[C@H](C)O[C@@H](O[C@H]3C[C@](O)(C(C)=O)Cc4c(O)c5c(c(O)c43)C(=O)c3c(F)cccc3C5=O)C[C@@H]12 [Comp. 21, (8S,10S)-8-acetyl-1-fluoro-6,8,11-trihydroxy-10-{[(1S,3R,4aS,9aR,10aS)-9-methoxy-1-methyloctahydro-1H-pyrano[4′,3′:4,5][1,3]oxazolo[2,3-c][1,4]oxazin-3-yl]oxy}-7,8,9,10-tetrahydrotetracene-5,12-dione] | 0.146 | 0.377 | 0.306 | 0.072 | 3.52 | 0.349 | 0.032
2 | CO[C@H]1OCCN2[C@@H]1O[C@@H]1[C@H](C)O[C@@H](O[C@H]3C[C@](O)(C(C)=O)Cc4c(O)c5c(c(O)c43)C(=O)c3c(N)cccc3C5=O)C[C@@H]12 [Comp. 22, (8S,10S)-8-acetyl-1-amino-6,8,11-trihydroxy-10-{[(1S,3R,4aS,9S,9aR,10aS)-9-methoxy-1-methyloctahydro-1H-pyrano[4′,3′:4,5][1,3]oxazolo[2,3-c][1,4]oxazin-3-yl]oxy}-7,8,9,10-tetrahydrotetracene-5,12-dione] | 0.2 | 0.549 | 0.538 | 0.313 | 0.668 | 0.7 | 0.044
3 | CO[C@H]1OCCN2[C@@H]1O[C@@H]1[C@H](C)OC(O[C@H]3C[C@](O)(C(C)=O)Cc4c(O)c5c(c(O)c43)C(=O)c3c(NC(=O)[C@H](C)N)cccc3C5=O)C[C@@H]12 (some centres unmarked) [Comp. 26] | 1.1 | 4.8 | – | 2.3 | 3.8 | 3.5 | 1.2
